In US7744590B2, “Red to near-infrared photobiomodulation treatment of the visual system in visual system disease or injury” (Medical College of Wisconsin Research Foundation, Inc., priority 2003, dated 2010):

Columns and labels:
[1] = system: methanol-intoxicated rats; assay: Rod and M-cone (15 Hz/510 nm) ERG after 72 hours of methanol intoxication; format: in vivo, rat
Method: (§1) Methanol-intoxication Protocol.
(§2) Light-Emitting Diode Treatment.
ERG Procedures and Analyses.
All sensitivity measures were made in triplicate.
15 Hz/510 nm ERG Response. ERGs were recorded in response to a 15-Hz flickering light at a wavelength of 510 nm over a 3-log unit range of light intensity.

[2] = system: methanol-intoxicated rats; assay: Retinal histopathology by light and electron microscopy; settings: rat, in vivo
Description: as §1, §2
Histopathologic Analysis.

[3] = system: methanol-intoxicated rats
Method: Animals were randomly assigned to one of four treatment groups: (1) Untreated control, (2) LED-treated control, (3) methanol-intoxicated and (4) LED-treated methanol-intoxicated rats. Rats were placed in a thermostatically controlled plexiglass chamber (22×55×22 cm; maintained at 22-23° C.) and exposed to a mixture of N2O/O2 (1:1; flow rate 2 liters/min) for the duration of the experiment. […] In the present studies, methanol (25% w/v methanol in saline) was administered (i.p.) to N2O/O2 treated rats at an initial dose of dose 4 g/kg, followed by supplemental doses of 1.5 g/kg at 24 and 48 hours.
Light-Emitting Diode Treatment. […] Rats were placed in a plexiglass restraint device (12.7×9×7.6 cm). The LED array was positioned directly over the animal at a distance of 1 inch, exposing the entire body. Treatment consisted of irradiation at 670 nm for 2 minutes and 24 seconds resulting in a power intensity of 28 mW/cm^2 and an energy density of 4 joules/cm^2 at 5, 25 and 50 hours after the initial dose of methanol.
ERG Procedures and Analyses. ERG experiments were performed as previously described (M. T. Seme, et al., supra, 1999; M. T. Seme, et al., supra, 2001). The light stimulation apparatus consisted of a three-beam optical system. All three beams were derived from tungsten-halide lamps (50 W, 12 V). Beam intensity was controlled by using neutral density step filters. ERG recordings were differentially amplified and computer-averaged. The amplified signal was processed through a two-stage active narrow bandpass filter (the half voltage of this filter was 0.2 times the center frequency). […] The averaged responses were measured (peak-to-trough amplitude) from a calibrated digital oscilloscope display.
Before ERG analysis, ophthalmoscopic examination confirmed that all eyes were free of lenticular opacities or other gross anomalies. […] The stimulus intensity yielding a 5-μV criterion response was determined by extrapolating between the two intensity points that bracketed the 5-μV response for each animal.

CO [methanol, Methanol]
increase of 5 μV threshold light intensity relative to control, 15-Hz/510-nm ERG [1]: 0.6 log units | maximal 15-Hz/510-nm ERG amplitude ([1]; 72 hours, no LED): 18±5 μV | maximal rod and M-cone ERG amplitude as % of the maximum control response ([1]; 72 hours, no LED): approximately 28% | light intensity required to elicit a threshold (5 μV) 15-Hz/510-nm ERG response ([1]; controls −3.0±0.1 LRRI): −2.4±0.1 LRRI | outer retinal histopathology [2]: Pronounced histopathologic changes | increase of light intensity required for a 5-μV UV-cone response [3]: 0.5 log units | maximal UV-cone ERG response amplitude ([3]; 72 hours, no LED): 18±6 μV | maximal UV-cone ERG amplitude as % of the maximum control response ([3]; no LED): 30%
